Source: paper PMC5421785, “Citrullination only infrequently impacts peptide binding to HLA class II MHC” (PLoS ONE, 2017)
Read-outs that look alike come from different tables or passages of the source. Ends that are not written are not given here.

Key:
[1] = biological target: T1, HLA-DRB1*04:01 (Homo sapiens, UniProt P01903+P01911, A100K/A169T/F76Y/I96L/K127E/L162R/M171V/N62H/P40V/Q125Y/R42H/S133A/S149N/S66Y/V115G/V209L/W38E); experiment: HLA class II peptide binding, inhibition of radiolabeled peptide binding to purified MHC; details: read-out: DRB1*04:01 binding capacity, WT peptide (IC50 nM)
T1 construct: EBV transformed homozygous cell lines were used as sources of MHC molecules; endogenous in cells; host or cells: EBV transformed homozygous cell lines

[2] = biological target: T2, HLA-DRB1*01:01 (Homo sapiens, UniProt P01903+P01911, A100R/D57E/F55L/F60I/F76Y/I96L/L162R/M171V/P40L/Q125E/R42F/V115G/Y59C); experiment: as above; details: read-out: DRB1*01:01 binding capacity, WT peptide (IC50 nM)
T2 construct: EBV transformed homozygous cell lines were used as sources of MHC molecules; endogenous in cells; host or cells: EBV transformed homozygous cell lines

[3] = wild-type (unmodified Arg) 15-mer peptide, purified HLA-DRB1*04:01
[4] = wild-type (unmodified Arg) 15-mer peptide, purified HLA-DRB1*01:01

Sequence	IC50 [1, 3] [nM]	IC50 [2, 4] [nM]	IC50 [1] [nM]	IC50 [2] [nM]
ADLSEAANRNNDALR [Vimentin 296 WT]			13900	4500
AGEPGERGLKGHRGF [Collagen 1121 WT]	> 40000	85		
ARLDLERKVESLQEE [Vimentin 216 WT]			17200	6310
ASRPSSSRSYVTTST [Vimentin 21 WT]			1030	7580
DGLAGPKGAPGERGP [Collagen 521 WT]	36900	2240		
DGPKGARGDSGPPGR [Collagen 926 WT]	27400	26700		
DIMRLREKLQEEMLQ [Vimentin 181 WT]			> 40000	852
DNASLARLDLERKVE [Vimentin 211 WT]			18800	7850
DVRQQYESVAAKNLQ [Vimentin 271 WT]			6370	10
EIATYRKLLEGEESR [Vimentin 396 WT]	3520	52		
ELRRQVDQLTNDKAR [Vimentin 156 WT]			5240	568
ENGSPGPMGPRGLPG [Collagen 316 WT]	> 40000	> 40000		
ERGFPGLPGPSGEPG [Collagen 991 WT]	> 40000	1280		
ERGRTGPAGAAGARG [Collagen 331 WT]	> 40000	1610		
FKNTRTNEKVELQEL [Vimentin 96 WT]			1790	4450
FSLADAINTEFKNTR [Vimentin 86 WT]			12000	68
GADGPPGRDGAAGVK [Collagen 1041 WT]	> 40000	> 40000		
GHRGFTGLQGLPGPP [Collagen 1131 WT]	335	0.77		
GIAGAPGFPGPRGPP [Collagen 426 WT]	> 40000	239		
GPQGARGQPGVMGFP [Collagen 591 WT]	2570	44		
GPRGERGFPGERGSP [Collagen 696 WT]	> 40000	11200		
IDVDVSKPDLTAALR [Vimentin 256 WT]			21400	1490
LGPREKGPDPLQYMR [Collagen 1226 WT]	> 40000	6720		

Sequence	IC50 [1, 3] [nM]	IC50 [2, 4] [nM]	IC50 [1] [nM]	IC50 [2] [nM]
LGVMQGPMGPMGPRG [Collagen 196 WT]	> 40000	19		
LPLVDTHSKRTLLIK [Vimentin 431 WT]	5090	641		
MARHLREYQDLLNVK [Vimentin 376 WT]	1780	270		
MIRLGAPQTLVLLTL [Collagen 1 WT]	7130	315		
MSTRSVSSSSYRRMF [Vimentin 1 WT]			491	408
NDALRQAKQESTEYR [Vimentin 306 WT]	> 40000	15400		
NDRFANYIDKVRFLE [Vimentin 111 WT]			16400	862
PGFPGPRGPPGPQGA [Collagen 431 WT]	> 40000	> 40000		
PGLRGLPGKDGETGA [Collagen 626 WT]	> 40000	259		
PGPAGPTGKQGDRGE [Collagen 1076 WT]	> 40000	> 40000		
PGQRGERGFPGLPGP [Collagen 986 WT]	> 40000	743		
PNFSSLNLRETNLDS [Vimentin 416 WT]	6480	538		
PPGPQGPAGEQGPRG [Collagen 121 WT]	> 40000	22400		
PTGKQGDRGEAGAQG [Collagen 1081 WT]	> 40000	31000		
QAKQESTEYRRQVQS [Vimentin 311 WT]	17000	1500		
QGPRGLPGTPGTDGP [Collagen 716 WT]	> 40000	10400		
RSSVPGVRLLQDSVD [Vimentin 71 WT]			4620	261
RTYSLGSALRPSTSR [Vimentin 36 WT]			769	11
SAVRLRSSVPGVRLL [Vimentin 66 WT]			5060	7.9
TGPKGARGAQGPPGA [Collagen 881 WT]	> 40000	17000		
THSKRTLLIKTVETR [Vimentin 436 WT]	6220	109		
TIGRLQDEIQNMKEE [Vimentin 361 WT]	21800	13700		
TLLIKTVETRDGQVI [Vimentin 441 WT]	6020	826		

The next lines start with the values.

IC50 [1, 3] [nM]	IC50 [2, 4] [nM]	IC50 [1] [nM]	IC50 [2] [nM]	Sequence
25200	1150			AAGVKGDRGETGAVG [Collagen 1051 WT]
		> 40000	> 40000	AANRNNDALRQAKQE [Vimentin 301 WT]
		1340	1330	AINTEFKNTRTNEKV [Vimentin 91 WT]
11500	625			ANYQDTIGRLQDEIQ [Vimentin 356 WT]
> 40000	32200			ARGAQGPPGATGFPG [Collagen 886 WT]
18000	39900			DALKGTNESLERQMR [Vimentin 331 WT]
		> 40000	4570	DNLAEDIMRLREKLQ [Vimentin 176 WT]
21600	729			DRGDVGEKGPEGAPG [Collagen 766 WT]
		4350	468	EEEMRELRRQVDQLT [Vimentin 151 WT]
		11900	704	EEMLQREEAENTLQS [Vimentin 191 WT]
> 40000	29			ERGLKGHRGFTGLQG [Collagen 1126 WT]
		> 40000	103	ERKVESLQEEIAFLK [Vimentin 221 WT]
912	11100			ERQMREMEENFAVEA [Vimentin 341 WT]
564	611			FAVEAANYQDTIGRL [Vimentin 351 WT]
		144	5260	FRQDVDNASLARLDL [Vimentin 206 WT]
> 40000	> 40000			GAEGPPGPQGLAGQR [Collagen 966 WT]
> 40000	352			GAQGLQGPRGLPGTP [Collagen 711 WT]
> 40000	9550			GDRGEAGAQGPMGPS [Collagen 1086 WT]
7570	527			GEESRISLPLPNFSS [Vimentin 406 WT]
		39500	5230	GGPGTASRPSSSRSY [Vimentin 16 WT]
2450	6.4			GIVGLPGQRGERGFP [Collagen 981 WT]
> 40000	810			GLPGAPGLRGLPGKD [Collagen 621 WT]
> 40000	> 40000			GPSGKDGPKGARGDS [Collagen 921 WT]
> 40000	952			GPTGVTGPKGARGAQ [Collagen 876 WT]
> 40000	363			KAGEKGLPGAPGLRG [Collagen 616 WT]

IC50 [1, 3] [nM]	IC50 [2, 4] [nM]	IC50 [1] [nM]	IC50 [2] [nM]	Sequence
9280	20			LAGQRGIVGLPGQRG [Collagen 976 WT]
		> 40000	248	LLAELEQLKGQGKSR [Vimentin 131 WT]
> 40000	851			LPGARGLTGRPGDAG [Collagen 556 WT]
4730	21			LVAAVLRCQGQDVQE [Collagen 16 WT]
5590	86			MALDIEIATYRKLLE [Vimentin 391 WT]
		884	524	NDKARVEVERDNLAE [Vimentin 166 WT]
		408	1840	NTLQSFRQDVDNASL [Vimentin 201 WT]
		824	72	NYIDKVRFLEQQNKI [Vimentin 116 WT]
14100	8.7			PGIDMSAFAGLGPRE [Collagen 1216 WT]
1050	14			PGLQGMPGERGAAGI [Collagen 746 WT]
> 40000	> 40000			QDGQRYNDKDVWKPE [Collagen 36 WT]
		> 40000	34600	QGKSRLGDLYEEEMR [Vimentin 141 WT]
		6010	6560	REEAENTLQSFRQDV [Vimentin 196 WT]
> 40000	> 40000			REGSPGADGPPGRDG [Collagen 1036 WT]
		> 40000	13800	REKLQEEMLQREEAE [Vimentin 186 WT]
> 40000	422			RGQPGVMGFPGPKGA [Collagen 596 WT]
9140	2730			RQVQSLTCEVDALKG [Vimentin 321 WT]
> 40000	50			SAFAGLGPREKGPDP [Collagen 1221 WT]
		> 40000	5190	SKPDLTAALRDVRQQ [Vimentin 261 WT]
		1150	7.2	SPGGVYATRSSAVRL [Vimentin 56 WT]
		245	70	SSRSYVTTSTRTYSL [Vimentin 26 WT]
600	138			STEYRRQVQSLTCEV [Vimentin 316 WT]
		6320	771	TAALRDVRQQYESVA [Vimentin 266 WT]
> 40000	431			TGFPGAAGRVGPPGS [Collagen 896 WT]
		17900	5150	TNEKVELQELNDRFA [Vimentin 101 WT]
